# Results published in patent US20250136558A1, “PYRAZINE COMPOUNDS AS IRREVERSIBLE INHIBITORS OF FLT3” (BIOMEA FUSION, INC., priority 2021, published 2025).
# What was measured:
# Type in all cases: cell-based
# K-562 = assay: Proliferation inhibition (CellTiter-Glo) in K-562 cells; conditions: Homo sapiens, K562, 96 h, K-562 CML cells, no FLT3 mutations, IC50 (4 days)
# Source text: (§1) The Proliferation Inhibitory Effect was Investigated in Human AML Cell Lines MOLM-13 (AddexBio: C0003003) [REF: Pubmed: 9305600] and MV-4-11 (ATCC: CRL-9591) [REF PMID: 3496132], and CML cell line […] (ATCC: CRL-3343) [REF PMID: 163658]. Molm-13 is heterozygous for FLT3-ITD mutation, while MV4-11 is homozygous for FLT3-ITD [PMID: 12529668]. […] Cells were maintained in RPMI-1640 medium (ThermoFisher catalog no. 61870036) supplemented with 10% of Heat Inactivated FBS (ThermoFisher catalog no.A31605) and 1% Pen-Strep (Thermofisher catalog no. 10378016) and cultured at 37° C. in a humidified incubator with 5% CO2. Cell lines were […], and the cells were maintained in a range 70%-80% confluency.
# (§2) ATP is present in all metabolically active cells and is considered as a marker for cell viability and proliferation. Metabolic cell activity was determined using the CellTiter-Glo kit (Promega catalog no. G7572), an ATP monitoring system based on the production of luminescence by the reaction of ATP with added UltraGlo® recombinant luciferase (Kawano et al., 2016, PLOS One, 8; 11(7):e0158888), according to the supplier's experimental recommendations. The assay was based on a 96 well plate format.
# (§3) Test compounds were dissolved at 10 mM in DMSO (Sigma catalog no. D8418; purity 299.9%) and stored at −20° C. Eight concentrations of test compound were assessed in duplicate in an individual test occasion in parallel in the selected cell lines. Gilteratinib and FF-10101 were used as reference compounds and tested in duplicate at eight concentrations. 100% of proliferation is represented by the untreated cells (0.2% DMSO).
# (§4) On the day of the experiment (TO), cells were quantified with the cell viability analyser NucleoCounter (Chemometec NC-200) and diluted with fresh medium to obtain the cell density of about 10,000 cells per 200 μL medium. 200 μL of cell suspension were added into wells in the 96 well plate.
# (§5) After 2 hours from seeding cells, compounds were added using a D300e compound dispenser (Life Sciences Tecan D300) at desired concentrations with shaking between each compound dispensed. Cell plates containing 200 μL/well suspension were incubated at 37° C. in a humidified incubator with […].
# (§6) […] Contents were mixed for 5 min on an orbital shaker to induce cell lysis, and then incubated at room temperature for an additional 10 min in the dark to stabilize the luminescent signal. Luminescence was read by using a GloMax GM300 plate reader (Promega) using the luminescence for 96 well plate standard protocol.
# (§7) Results were analysed by GraphPad (Prism) and IC50 values were calculated by non-linear regression using four parameter-logistic equation.
# MOLM-13 = assay: Proliferation inhibition (CellTiter-Glo) in MOLM-13 cells; conditions: Homo sapiens, 96 h, MOLM-13 AML cells, heterozygous FLT3-ITD, IC50 (4 days)
# Source text: as §1, §2, §3, §4, §5, §6, §7
# MV-4-11 = assay: Proliferation inhibition (CellTiter-Glo) in MV-4-11 cells; conditions: Homo sapiens, MV4-11, 96 h, MV-4-11 AML cells, homozygous FLT3-ITD, IC50 (4 days)
# Source text: as §1, §2, §3, §4, §5, §6, §7
IC50 (K-562) [nM],IC50 (MOLM-13) [nM],IC50 (MV-4-11) [nM],Structure (SMILES)
> 500,100 to 500,10 to 100,"C=CC(=O)NCCNc1cc(Nc2nc(NC3CCOCC3)c(CC)nc2C(N)=O)ccn1 [Compound 20, 3-((2-((2-Acrylamidoethyl)amino)pyridin-4-yl)amino)-6-ethyl-5-((tetrahydro-2H-pyran-4-yl)amino)pyrazine-2-carboxamide]"
100 to 500,10 to 100,10 to 100,"C#CC(=O)NCCNc1cc(Nc2nc(NC3CCOCC3)c(CC)nc2C(N)=O)ccn1 [Compound 21, 6-Ethyl-3-((2-((2-propiolamidoethyl)amino)pyridin-4-yl)amino)-5-((tetrahydro-2H-pyran-4-yl)amino)pyrazine-2-carboxamide]"
> 500,10 to 100,10 to 100,"CC#CC(=O)NCCNc1cc(Nc2nc(NC3CCOCC3)c(CC)nc2C(N)=O)ccn1 [Compound 22, 3-((2-((2-(But-2-ynamido)ethyl)amino)pyridin-4-yl)amino)-6-ethyl-5-((tetrahydro-2H-pyran-4-yl)amino)pyrazine-2-carboxamide]"
100 to 500,10 to 100,10 to 100,"C=CS(=O)(=O)NCCNc1cc(Nc2nc(NC3CCOCC3)c(CC)nc2C(N)=O)ccn1 [Compound 23, 6-Ethyl-5-((tetrahydro-2H-pyran-4-yl)amino)-3-((2-((2-(vinylsulfonamido)ethyl)amino)pyridin-4-yl)amino)pyrazine-2-carboxamide]"
> 500,10 to 100,10 to 100,"C=CC(=O)NCCCNc1cc(Nc2nc(NC3CCOCC3)c(CC)nc2C(N)=O)ccn1 [Compound 24, 3-((2-((3-Acrylamidopropyl)amino)pyridin-4-yl)amino)-6-ethyl-5-((tetrahydro-2H-pyran-4-yl)amino)pyrazine-2-carboxamide]"
100 to 500,10 to 100,1 to 10,"C#CC(=O)NCCCNc1cc(Nc2nc(NC3CCOCC3)c(CC)nc2C(N)=O)ccn1 [Compound 25, 6-Ethyl-3-((2-((3-propiolamidopropyl)amino)pyridin-4-yl)amino)-5-((tetrahydro-2H-pyran-4-yl)amino)pyrazine-2-carboxamide]"
> 500,100 to 500,10 to 100,"CC#CC(=O)NCCCNc1cc(Nc2nc(NC3CCOCC3)c(CC)nc2C(N)=O)ccn1 [Compound 26, 3-((2-((3-(But-2-ynamido)propyl)amino)pyridin-4-yl)amino)-6-ethyl-5-((tetrahydro-2H-pyran-4-yl)amino)pyrazine-2-carboxamide]"
> 500,10 to 100,10 to 100,"C=CS(=O)(=O)NCCCNc1cc(Nc2nc(NC3CCOCC3)c(CC)nc2C(N)=O)ccn1 [Compound 27, 6-Ethyl-5-((tetrahydro-2H-pyran-4-yl)amino)-3-((2-((3-(vinylsulfonamido)propyl)amino)pyridin-4-yl)amino)pyrazine-2-carboxamide]"
> 500,100 to 500,100 to 500,"C=CC(=O)NCCCC(=O)NCCc1cc(Nc2nc(NC3CCOCC3)c(CC)nc2C(N)=O)cc(OC)c1 [Compound 28, 3-((3-(2-(4-Acrylamidobutanamido)ethyl)-5-methoxyphenyl)amino)-6-ethyl-5-((tetrahydro-2H-pyran-4-yl)amino)pyrazine-2-carboxamide]"
> 500,10 to 100,10 to 100,"C=CC(=O)NCCC(=O)NCCc1cc(Nc2nc(NC3CCOCC3)c(CC)nc2C(N)=O)cc(OC)c1 [Compound 29, 3-((3-(2-(3-Acrylamidopropanamido)ethyl)-5-methoxyphenyl)amino)-6-ethyl-5-((tetrahydro-2H-pyran-4-yl)amino)pyrazine-2-carboxamide]"
> 500,100 to 500,1 to 10,"C=CC(=O)N(C)CCCC(=O)NCCc1cc(Nc2nc(NC3CCOCC3)c(CC)nc2C(N)=O)cc(OC)c1 [Compound 30, 6-Ethyl-3-((3-methoxy-5-(2-(4-(N-methylacrylamido)butanamido)ethyl)phenyl)amino)-5-((tetrahydro-2H-pyran-4-yl)amino)pyrazine-2-carboxamide]"
> 500,1 to 10,< 1,"C#CC(=O)NCCC(=O)NCCc1cc(Nc2nc(NC3CCOCC3)c(CC)nc2C(N)=O)cc(OC)c1 [Compound 31, 6-Ethyl-3-((3-methoxy-5-(2-(3-propiolamidopropanamido)ethyl)phenyl)amino)-5-((tetrahydro-2H-pyran-4-yl)amino)pyrazine-2-carboxamide]"
> 500,1 to 10,< 1,"C#CC(=O)N(C)CCCC(=O)NCCc1cc(Nc2nc(NC3CCOCC3)c(CC)nc2C(N)=O)cc(OC)c1 [Compound 32, 6-ethyl-3-[3-methoxy-5-[2-[4-[methyl(prop-2-ynoyl)amino]butanoylamino]ethyl]anilino]-5-(tetrahydropyran-4-ylamino)pyrazine-2-carboxamide]"
> 500,10 to 100,10 to 100,"CC#CC(=O)N(C)CCCC(=O)NCCc1cc(Nc2nc(NC3CCOCC3)c(CC)nc2C(N)=O)cc(OC)c1 [Compound 33, 3-[3-[2-[4-[but-2-ynoyl(methyl)amino]butanoylamino]ethyl]-5-methoxy-anilino]-6-ethyl-5-(tetrahydropyran-4-ylamino)pyrazine-2-carboxamide]"
> 500,10 to 100,1 to 10,"C=CC(=O)N(C)CCC(=O)NCCc1cc(Nc2nc(NC3CCOCC3)c(CC)nc2C(N)=O)cc(OC)c1 [Compound 34, 6-Ethyl-3-((3-methoxy-5-(2-(3-(N-methylacrylamido)propanamido)ethyl)phenyl)amino)-5-((tetrahydro-2H-pyran-4-yl)amino)pyrazine-2-carboxamide]"
> 500,10 to 100,10 to 100,"CC#CC(=O)N(C)CCC(=O)NCCc1cc(Nc2nc(NC3CCOCC3)c(CC)nc2C(N)=O)cc(OC)c1 [Compound 35, 3-[3-[2-[3-[but-2-ynoyl(methyl)amino]propanoylamino]ethyl]-5-methoxy-anilino]-6-ethyl-5-(tetrahydropyran-4-ylamino)pyrazine-2-carboxamide]"
> 500,1 to 10,< 1,"C=CC(=O)N(C)[C@@H](C)C(=O)NCCCOc1cccc(Nc2nc(NC3CCOCC3)c(CC)nc2C(N)=O)c1 [Compound 36, 6-ethyl-3-[3-[3-[[(2S)-2-[methyl(prop-2-enoyl)amino]propanoyl]amino]propoxy]anilino]-5-(tetrahydropyran-4-ylamino)pyrazine-2-carboxamide]"
> 500,< 1,< 1,"CCc1nc(C(N)=O)c(Nc2cccc(OCCCNC(=O)[C@H](C)N(C)C(=O)/C=C/CN(C)C)c2)nc1NC1CCOCC1 [Compound 37, 3-[3-[3-[[(2S)-2-[[(E)-4-(dimethylamino)but-2-enoyl]-methyl-amino]propanoyl]amino]propoxy]anilino]-6-ethyl-5-(tetrahydropyran-4-ylamino)pyrazine-2-carboxamide]"
> 500,10 to 100,1 to 10,"C=CC(=O)N(C)[C@@H](C)C(=O)NCCOc1cccc(Nc2nc(NC3CCOCC3)c(CC)nc2C(N)=O)c1 [Compound 38, 6-ethyl-3-[3-[2-[[(2S)-2-[methyl(prop-2-enoyl)amino]propanoyl]amino]ethoxy]anilino]-5-(tetrahydropyran-4-ylamino)pyrazine-2-carboxamide]"
> 500,1 to 10,< 1,"CCc1nc(C(N)=O)c(Nc2cccc(OCCNC(=O)[C@H](C)N(C)C(=O)/C=C/CN(C)C)c2)nc1NC1CCOCC1 [Compound 39, 3-[3-[2-[[(2S)-2-[[(E)-4-(dimethylamino)but-2-enoyl]-methyl-amino]propanoyl]amino]ethoxy]anilino]-6-ethyl-5-(tetrahydropyran-4-ylamino)pyrazine-2-carboxamide]"
